Test results from PMC5838563, “Compounds producing an effective combinatorial regimen for disruption of HIV‐1 latency” (EMBO Molecular Medicine, 2017).

How the values were obtained:
[1] = tested on: IL‐2 production and CD69 in primary cells; design: method as in previous results (reference not given); details: 10 nM PEP005, primary cells; ref previous results (reference not given); cited from earlier work
[2] = tested on: HIV‐1 LTR (Jurkat^Tat LTR‐DsRed clone #11); assay: mdHIV LTR‐DsRed reporter assay, clone #11; type: cell-based
From the text: HIV‐1 tends to integrate into actively transcribed regions of the host genome (Jordan et al, 2003; Lewinski et al, 2006; Ikeda et al, 2007). Each HIV‐1‐infected patient carries viral DNA integrated at different chromosomal locations, and as we have previously shown, the site of viral integration influences how latently infected T cells respond to different stimuli (Hashemi et al, 2016). Therefore, an ideal LRA should be capable of disrupting latency in cell models carrying integrated viral reporters at multiple different regions within the host genome. To assess this capability for the PH compounds, we used two additional previously described cell lines, designated Jurkat^Tat LTR‐DsRed clones #11, and #131, that carry a mini‐dual fluorescent HIV‐1 LTR reporter (mdHIV) at different chromosomal locations. The minivirus mdHIV has two fluorescent reporters in which DsRed expression is driven from the 5′ LTR, and eGFP is constitutively expressed from an internal EIF‐1α promoter (Fig 5A). […]
Figure 5 Effect of PH02 on HIV provirus integrated at different chromosomal locations • A The effect of PH compounds was analyzed using clonal lines bearing single‐copy integrations of the mini‐dual fluorescent HIV‐1 LTR reporter, md‐HIV, where GFP is constitutively expressed from the EIF‐1α internal promoter, and DsRed from the 5′ LTR. • B Fluorescence‐activated cell sorting (FACS) of cells bearing md‐HIV provirus indicates expression of EIF‐1α‐GFP and LTR‐dsRed. Stimulation of the md‐HIV lines generally causes a shift of the fluorescence profile from GFP^+/DsRed^− toward GFP^+/DsRed^+. • C, D Clone 11 or clone 131 was treated with the indicated concentrations of PH02 (left panels) or PH02 in combination with 10 nM PEP005 (right panels) for 24 h and cells analyzed by flow cytometry. Results presented as Δmean fluorescence intensity (ΔMFI) of DsRed expression and fold increase in DsRed expression for solo and combination treatments, respectively. Mean and SE are determined from three biological replicates (n = 3) and technical duplicates. […]

For C/C=C(/C)C(=O)O[C@H]1C(C)=C[C@]23C(=O)[C@@H](C=C(CO)[C@@H](O)[C@]12O)[C@H]1[C@@H](C[C@H]3C)C1(C)C [PEP005, ingenol‐3‐angelate, reference compound], the CD69 [1] is listed as “does induce upregulation of CD69” and the “IL‐2 production” value [1] is listed as “does not cause”.

In the case of CC(=O)Oc1ccccc1N(C=C1Sc2ccccc2C1=O)C(C)=O [PH02, 2‐{acetyl[(3‐oxo‐1‐benzothien‐2(3H)‐ylidene)methyl]amino}phenyl acetate], the “concentration reactivating viral transcription (LTR‐DsRed, ∆MFI)” value ([2]; PH02 alone, 24 h, serial dilutions 28–0.2 μM) is reported as “above 1.75 μM” and the “PH02 concentration producing increased effects on HIV‐1 LTR transcription with PEP005” value ([2]; in combination with 10 nM PEP005, 24 h) is reported as “above 1.75 μM”.
